Laboratory results: patent publication US10639295B2 (priority 2016, dated 2020)
Where two headings read alike, the source gives them in different places.

How the values were obtained:
[1] = for concentration in the lung compared with 4′-demethylepipodophyllotoxin original drug group and etoposide control group: 5 minutes after administration by tail intravenous injection (FIG. 1); for time for which a relatively high drug concentration in the lung lasted (retention time in the lung): after tail intravenous injection; for drug concentration in the lung compared with 4′-demethylepipodophyllotoxin original drug group and etoposide control group: at each time point after tail intravenous injection (FIG. 2); for lung relative uptake rate Re (AUC0-t,lung compound / AUC0-t,lung drug) / peak concentration ratio Ce in the lung (Cmax,lung compound / Cmax,lung drug): versus 4′-demethylepipodophyllotoxin original drug group; for lung relative uptake rate Re (AUC0-t,lung compound / AUC0-t,lung drug) / peak concentration ratio Ce in the lung (Cmax,lung compound / Cmax,lung drug) / lung relative uptake rate Re (AUC0-t,lung compound / AUC0-t,lung control) / peak concentration ratio Ce in the lung (Cmax,lung compound / Cmax,lung control): tail intravenous injection; for lung relative uptake rate Re (AUC0-t,lung compound / AUC0-t,lung drug) / lung relative uptake rate Re (AUC0-t,lung compound / AUC0-t,lung control) / peak concentration ratio Ce in the lung (Cmax,lung compound / Cmax,lung control): equimolar doses; for peak concentration ratio Ce in the lung (Cmax,lung compound / Cmax,lung drug): equimolar to 10.00 mg/kg 4′-demethylepipodophyllotoxin; for lung relative uptake rate Re (AUC0-t,lung compound / AUC0-t,lung control) / peak concentration ratio Ce in the lung (Cmax,lung compound / Cmax,lung control): versus etoposide control group
Procedure: 16 mg of 4′-demethylepipodophyllotoxin was accurately weighed, 5% DMSO, 20% polyethylene glycol 400 and 20% absolute ethanol were added to help dissolution, so as to prepare an injection for intravenous injection with a concentration of 2 mg/mL. 28 mg of etoposide was accurately weighed, and 5% DMSO, 20% polyethylene glycol 400 and 20% absolute ethanol were added to help dissolution, so as to prepare an injection for intravenous injection with a concentration of 3.5 mg/mL. 30.40 mg of compound DC or DP was accurately weighed, and 5% DMSO, 20% polyethylene glycol 400 and 20% absolute ethanol were added to help dissolution, so as to prepare an injection for intravenous injection with a concentration of 3.8 mg/mL.
200 Kunming mice (male, 20±2 g) were used, which were fasted for 12 h before the experiment and given free access to water. In the experiment, they were randomly divided into 4 groups and administered by tail intravenous injection. The administration of 4′-demethylepipodophyllotoxin was carried out with a dosage of 10.00 mg/kg. Etoposide, compound DC and compound DP were administered in equimolar amount as 4′-demethylepipodophyllotoxin, and the administration dosages were etoposide 14.71 mg/kg, compound DC 15.78 mg/kg, and compound DP 15.38 mg/kg, respectively. 5 minutes, 15 minutes, 30 minutes, 1 hour, 2 hours, 4 hours, 8 hours, 12 hours, 24 hours and 48 hours after administration, the blood was collected and the mice sacrificed in all groups. The whole blood was put into sodium heparin-containing EP tubes, centrifuged at 5000 rpm at 4° C. for 5 min, and the upper plasma was collected and frozen at −40° C. for use. The hearts, livers, spleens, lungs, kidneys, brains and pancreas of the mice were immediately separated, and the residual blood was washed away with physiological saline. The remaining water on the surfaces of the organs was absorbed with filter papers. The organs were weighed and physiological saline 2 times the volume of the organs was added for homogenization.
0.1 mL of mouse plasma and 0.1 mL of tissue homogenate were taken and put into a 0.5 mL EP tube, 0.3 mL of methanol was added to all the samples as a protein precipitant. The sample was subjected to vortex vibration for 5 minutes, and then centrifuged at 13000 rpm at 4° C. for 10 min. The supernatant was taken and filtered with a 0.22 μm organic filtration membrane, and 1 μL of the sample was taken and subjected to LC-MS/MS analysis.
LC-MS/MS Analysis Condition
Liquid phase conditions: Agilent 1200 Series High Resolution Rapid LC System (RRLC); chromatographic column: Agilent Diamonsil ODS column (50 mm×4.6 mm, 1.8 μm); mobile phase: for 4′-demethylepipodophyllotoxin, methanol:0.1% formic acid aqueous solution=50:50, for etoposide, acetonitrile:0.1% formic acid aqueous solution=35:65, for compound DC, methanol:0.1% formic acid aqueous solution=[…], and for compound DP, methanol:0.1% formic acid aqueous solution=34:66; flow rate: 0.4 mL/min; column temperature: 30° C.; and injection volume: 1 μL.
Mass spectra conditions: Agilent Triple Quadrupole Mass Spectrometry (6410B); the analytes were subjected to a multiple reaction monitoring (MRM) in positive mode: for 4′-demethylepipodophyllotoxin, etoposide, compound DC and compound DP, fragmentation voltages were 97 V, 148 V, 190 V and 169 V, respectively; collision cell voltages were 20 V, 12 V, 52 V and 36 V, respectively; and ionic reactions (m/z) were 401.1→185, 589.2→229, 632.3→86.1 and 616.3→58.1, respectively; drying gas temperature: 350° C.; drying gas flow rate: 10 L/min; atomization air pressure: 30 psi; and the capillary voltage: 4000V.
Each pharmacokinetic parameters were calculated by DAS3.2.5 software, and the formula for calculating the targeting ability evaluation index, i.e., peak concentration ratio Ce and relative uptake rate Re, were shown hereinafter. Celung=(Cmax,lung)compound/(Cmax,lung)drug or control Relung=(AUC0-t,lung)compound/(AUC0-t,lung)drug or control

[2] = test system: mouse melanoma B16 cells; assay type: in vivo, C57BL/6 mice; details: intravenous injection, equimolar to 5.00 mg/kg 4′-demethylepipodophyllotoxin; for curative effect on lung metastatic tumor: 22nd day after modeling; for tumor-bearing lung weight / number of lung metastasis tumor nodules: sacrificed on the 22nd day; for tumor-bearing lung weight: compared with control group (FIG. 3); for number of lung metastasis tumor nodules: compared with control group (FIG. 4)
Procedure: The experiment was performed according to the method reported by Small, 2014(3):524-535. C57BL/6 mice (male, 20±2 g, 6 to 8 week-old) were used and intravenously injected with mouse melanoma B16 cells in logarithmic growth phase. 5×10^5 cells were injected into each mouse to establish a melanoma lung metastasis model, and the mice were randomly divided into 5 groups (recorded as the 0th day). The injections for intravenous injecting used in the experiment were prepared according to Example 6. On the 4th, 7th and 13th day after the modeling, each group was subjected to intravenous injection for […]. 4′-demethylepipodophyllotoxin was provided at a dosage of 5.00 mg/kg, and etoposide, compound DC and compound DP were provided at equimolar amount with 4′-demethylepipodophyllotoxin, and the administration dosages were etoposide 7.36 mg/kg, compound DC 7.89 mg/kg, and compound DP 7.69 mg/kg, respectively. The control group was administered with equal amount of solvent. All mice were housed normally and sacrificed on the 22nd day after modeling. The lung tissue was immediately separated out, washed with physiological saline and weighed, and the number of tumor nodules was calculated.

concentration in the lung ([1]; mouse, in vivo, iv, 14.71 mg/kg)	SMILES	curative effect on lung metastatic tumor [2]	tumor-bearing lung weight [2]	number of lung metastasis tumor nodules [2]	concentration in the lung compared with 4′-demethylepipodophyllotoxin original drug group and etoposide control group [1]	time for which a relatively high drug concentration in the lung lasted (retention time in the lung) [1]	drug concentration in the lung compared with 4′-demethylepipodophyllotoxin original drug group and etoposide control group [1]	lung relative uptake rate Re (AUC0-t,lung compound / AUC0-t,lung drug) [1] [times]	peak concentration ratio Ce in the lung (Cmax,lung compound / Cmax,lung drug) [1] [times]	lung relative uptake rate Re (AUC0-t,lung compound / AUC0-t,lung control) [1] [times]	peak concentration ratio Ce in the lung (Cmax,lung compound / Cmax,lung control) [1] [times]	concentration in the lung ([1]; one hour after the administration, tail intravenous injection 10.00 mg/kg)
below the detectable limit	COc1cc([C@@H]2c3cc4c(cc3[C@@H](O[C@@H]3O[C@@H]5CO[C@@H](C)O[C@H]5[C@H](O)[C@H]3O)[C@H]3COC(=O)[C@H]23)OCO4)cc(OC)c1O [etoposide, reference compound]	improved the lung metastatic tumor to a certain degree	reduced the tumor-bearing lung weight	decreases the number of lung metastasis tumor nodules	–	–	–	–	–	–	–	–
–	COc1cc([C@@H]2c3cc4c(cc3[C@@H](NC(=O)c3ccc(CN(C)CCCN(C)C)cc3)[C@H]3COC(=O)[C@H]23)OCO4)cc(OC)c1O [compound DC]	best curative effects	least	least	much higher	up to 48 hours	much higher	168.38	5.29	98.16	4.54	–
–	COc1cc(C2c3cc4c(cc3C(O)C3COC(=O)C23)OCO4)cc(OC)c1O (stereo not shown) [4′-demethylepipodophyllotoxin, reference compound]	improved the lung metastatic tumor to a certain degree	reduced the tumor-bearing lung weight	decreases the number of lung metastasis tumor nodules	–	–	–	–	–	–	–	below the detectable limit
–	COc1cc([C@@H]2c3cc4c(cc3[C@@H](NC(=O)c3ccc(CN5CCN(C)CC5)cc3)[C@H]3COC(=O)[C@H]23)OCO4)cc(OC)c1O [compound DP]	best curative effects	least	least	much higher	≤ 12 h	much higher	42.56	5.41	24.81	4.65	–
